Biological target: Piezo1 (Mus musculus, UniProt E2JF22)
Assay: cell-attached single-channel patch clamp, open probability
Assay type: cell-based
Conditions: activator, 5 μM in pipette, -50 mV; effect absent in Piezo1-EC-KO cECs

Chain of Piezo1 (E2JF22 whole entry): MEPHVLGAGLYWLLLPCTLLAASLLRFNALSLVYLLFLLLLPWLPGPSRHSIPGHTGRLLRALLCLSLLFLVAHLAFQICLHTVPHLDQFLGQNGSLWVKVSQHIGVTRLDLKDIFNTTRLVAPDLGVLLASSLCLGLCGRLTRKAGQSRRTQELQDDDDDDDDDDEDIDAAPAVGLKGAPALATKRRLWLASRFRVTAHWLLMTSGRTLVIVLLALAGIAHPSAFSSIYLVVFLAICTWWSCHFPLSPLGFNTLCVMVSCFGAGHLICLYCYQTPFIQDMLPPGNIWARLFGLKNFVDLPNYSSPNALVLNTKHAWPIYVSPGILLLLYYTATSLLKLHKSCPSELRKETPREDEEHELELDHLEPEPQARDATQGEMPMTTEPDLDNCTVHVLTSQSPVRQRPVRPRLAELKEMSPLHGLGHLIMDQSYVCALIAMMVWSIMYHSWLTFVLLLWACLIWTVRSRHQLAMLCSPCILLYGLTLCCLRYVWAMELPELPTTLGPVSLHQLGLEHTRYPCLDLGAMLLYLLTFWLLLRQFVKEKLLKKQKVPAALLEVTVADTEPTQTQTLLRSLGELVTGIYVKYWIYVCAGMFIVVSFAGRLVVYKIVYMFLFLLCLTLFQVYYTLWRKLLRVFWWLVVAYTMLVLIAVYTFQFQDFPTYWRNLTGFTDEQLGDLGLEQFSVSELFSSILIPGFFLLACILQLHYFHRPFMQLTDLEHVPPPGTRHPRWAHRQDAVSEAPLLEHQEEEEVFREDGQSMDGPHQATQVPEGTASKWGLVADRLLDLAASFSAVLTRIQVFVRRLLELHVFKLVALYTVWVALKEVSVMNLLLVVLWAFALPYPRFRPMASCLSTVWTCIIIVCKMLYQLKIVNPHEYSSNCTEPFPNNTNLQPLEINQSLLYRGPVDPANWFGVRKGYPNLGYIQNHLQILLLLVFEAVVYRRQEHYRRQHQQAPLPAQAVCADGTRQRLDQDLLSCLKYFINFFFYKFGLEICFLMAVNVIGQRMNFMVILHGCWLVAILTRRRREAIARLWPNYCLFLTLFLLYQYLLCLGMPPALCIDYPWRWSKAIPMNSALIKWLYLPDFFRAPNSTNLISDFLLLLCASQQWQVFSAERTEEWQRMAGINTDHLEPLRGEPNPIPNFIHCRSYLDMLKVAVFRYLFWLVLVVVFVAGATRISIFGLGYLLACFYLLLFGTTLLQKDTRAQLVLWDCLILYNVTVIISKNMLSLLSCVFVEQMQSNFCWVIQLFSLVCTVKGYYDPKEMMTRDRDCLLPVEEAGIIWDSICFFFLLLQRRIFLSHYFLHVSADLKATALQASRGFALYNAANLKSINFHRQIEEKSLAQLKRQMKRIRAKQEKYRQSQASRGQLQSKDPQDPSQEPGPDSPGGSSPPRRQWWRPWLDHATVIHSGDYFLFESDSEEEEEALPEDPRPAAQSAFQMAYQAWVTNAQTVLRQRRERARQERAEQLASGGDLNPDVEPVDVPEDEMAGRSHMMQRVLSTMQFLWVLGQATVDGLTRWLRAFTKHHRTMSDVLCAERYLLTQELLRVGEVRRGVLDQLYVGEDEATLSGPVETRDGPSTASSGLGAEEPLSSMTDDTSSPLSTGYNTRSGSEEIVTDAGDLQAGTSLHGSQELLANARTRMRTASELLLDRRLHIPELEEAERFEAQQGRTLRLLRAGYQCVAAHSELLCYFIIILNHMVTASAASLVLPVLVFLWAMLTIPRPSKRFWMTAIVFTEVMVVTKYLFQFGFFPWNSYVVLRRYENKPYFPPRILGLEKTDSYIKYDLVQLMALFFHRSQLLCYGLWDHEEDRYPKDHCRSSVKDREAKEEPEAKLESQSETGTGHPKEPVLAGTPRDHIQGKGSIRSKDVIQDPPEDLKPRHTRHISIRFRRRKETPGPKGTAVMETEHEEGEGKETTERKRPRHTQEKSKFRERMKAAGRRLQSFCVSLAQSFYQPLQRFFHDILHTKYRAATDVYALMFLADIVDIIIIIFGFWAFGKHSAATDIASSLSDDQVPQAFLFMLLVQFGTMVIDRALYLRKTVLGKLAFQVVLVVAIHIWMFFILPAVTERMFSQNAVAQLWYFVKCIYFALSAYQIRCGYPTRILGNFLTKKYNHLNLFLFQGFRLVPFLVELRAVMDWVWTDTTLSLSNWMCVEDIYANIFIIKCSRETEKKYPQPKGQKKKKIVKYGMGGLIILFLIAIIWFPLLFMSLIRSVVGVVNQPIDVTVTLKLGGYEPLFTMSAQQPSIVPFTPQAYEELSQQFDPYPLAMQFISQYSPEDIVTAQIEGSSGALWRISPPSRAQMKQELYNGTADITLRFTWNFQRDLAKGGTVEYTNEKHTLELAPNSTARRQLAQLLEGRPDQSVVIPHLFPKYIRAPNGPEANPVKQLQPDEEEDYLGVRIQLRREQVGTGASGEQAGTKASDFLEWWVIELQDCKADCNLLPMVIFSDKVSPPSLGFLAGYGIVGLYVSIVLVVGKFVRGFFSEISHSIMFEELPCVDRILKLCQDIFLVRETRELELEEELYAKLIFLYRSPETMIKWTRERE

Clc1cccc(Cl)c1CSc1nnc(-c2cnccn2)s1 [Yoda1]
cell-attached single-channel patch clamp, open probability: increased the open probability of Piezo1-like currents in Piezo1-EC-Ctrl cECs but not in Piezo1-EC-KO

Reference: paper PMC9106929 (Circulation research, 2022)
